# Patent US9790506B2, “Diagnostic and screening methods for atopic dermatitis” (The Regents of the University of California, priority 2013, dated 2017)
# Ends that are not written are not given here.
# Key:
# NFAT = NFAT translocation to the nucleus in keratinocytes (immunostaining); format: cell-based, human; settings: for SLIGRL-induced NFAT nuclear translocation in the presence of inhibitor: SLIGRL 100 μM + 2APB 50 μM or CsA 1 μM, 30 min
# Protocol: Histology Histology was carried out as previously described (Gerhold, 2013). Antibodies: rabbit anti-PGP9.5 and rabbit anti-peripherin (Millipore) 1:1000; goat anti-TSLPR and mouse anti-NFATcI (Santa Cruz Biotechnology) 1:100. IL7Rα and TSLPR probes (Panomics) were used for in situ hybridization following the Quantigene protocol (Panomics).
# Following a rise in Ca^2+, NFAT is dephosphorylated by the Ca^2+-dependent phosphatase calcineurin and translocates from the cytosol to the nucleus to promote transcription of target genes (Rao et al., 1997).
# keratinocytes [1] = experiment: ratiometric Ca^2+ imaging of keratinocytes; format: cell-based, human; settings: for SLIGRL-evoked Ca^2+ influx / intracellular Ca^2+ response of keratinocytes: SLIGRL 100 μM; for SLIGRL-evoked Ca^2+ influx / tryptase-evoked Ca^2+ influx: 2 mM Ca^2+, 50 μM 2-APB, 50 nM La^3+; for tryptase-evoked Ca^2+ influx / intracellular Ca^2+ response of keratinocytes: tryptase 100 nM; for intracellular Ca^2+ response of keratinocytes: BAM8-22 2 μM
# Protocol: (§1) Physiological Ringer solution: 140 mM NaCl, 5 mM KCl, 10 mM HEPES, 2 mM CaCl2, 2 mM MgCl2, 10 mM D-(+)-glucose, pH 7.4 with NaOH. Images were collected and analyzed using MetaFluor (Molecular Devices).
# DRG neurons = experiment: ratiometric Ca^2+ imaging of DRG neurons; format: cell-based, mouse; settings: for Ca^2+ levels in TSLP-positive cells on subsequent exposure: AITC 200 μM, CAP 1 μM, all TSLP-positive cells; for overlap of the TSLP-sensitive population with the population sensitive to the compound: DRG neurons, FIG. 3D; for prevalence of TSLP-sensitive neurons / TSLP-evoked Ca^2+ signals after pre-treatment: neurons pre-treated with blocker versus vehicle
# Protocol: as §1
# mice = experiment: mouse cheek model of itch (scratching behavior after intradermal injection); format: in vivo
# Protocol: Mice and Behavior Mice (20-35 g) were housed in 12 h light-dark cycle at 21° C. […] For AITC behavior, 5 μL 10% AITC in mineral oil was applied to the right hind paw. Behavioral scoring was performed while blind to treatment and genotype. All experiments were performed under the policies and recommendations of the International Association for the Study of Pain and approved by the University of California, Berkeley Animal Care and Use Committee. […]
# keratinocytes [2] = experiment: TSLP release from keratinocytes (ELISA); format: cell-based, human; settings: 24 h treatment, tryptase 100 nM, SLIGRL 100 μM; for TSLP secretion: TG 1 μM, versus vehicle; for TSLP secretion in the absence of external Ca^2+: 0 Ca
# Source text: TSLP release was normalized to vehicle.
# TSLP transcripts = experiment: expression of TSLP transcripts in keratinocytes; format: cell-based, human; settings: PAR2-evoked SOCE; 3 h treatment with SLIGRL 100 μM versus vehicle
# Protocol: RT-PCR RNA was extracted using RNeasy (Qiagen) and reverse transcription was performed using Superscript III. RT-PCR was carried out using SYBR Green (Invitrogen) on a StepOnePlus ABI machine. Threshold cycles for each transcript (Bogiatzi et al.) were normalized to GAPDH (ACt). Calibrations and normalizations used the 2^−ΔΔCt method where ΔΔCt=[(Ct (target gene)−Ct (reference gene)]−[Ct (calibrator)−Ct (reference gene)]; GAPDH=reference gene; scrambled siRNA=calibrator. Experiments were performed in triplicate.
# keratinocytes [3] = experiment: perforated-patch voltage-clamp recordings on keratinocytes; format: cell-based, human; settings: SLIGRL 100 μM
# Protocol: Electrophysiology Recordings were collected at 5 kHz and filtered at 2 kHz using an Axopatch 200B and PClamp software. Electrode resistances were 2-6 MΩ. Perforated patch internal solution: 140 mM CsCl, 5 mM EGTA, 10 mM HEPES, pH 7.4 with CsOH, 0.24 mg ml^−1 Amphotericin B (Rae et al., 1991). Stimulation protocol: 10 ms step to −80 mV, 150 ms ramp from −80 mV to +80 mV. Current clamp internal solution: 140 mM KCl, 5 mM EGTA and 10 mM HEPES (pH 7.4 with KOH). Series resistance of all cells were <30 MΩ, and liquid junction potentials were <5 mV (no correction).
# DRG neuron = experiment: current-clamp recording in DRG neuron; format: cell-based, mouse; settings: subset of CAP-sensitive DRG neurons
# MrgprC11 = molecular target: T1, MrgprC11 (Mus musculus, UniProt Q8CIP3); experiment: Ca^2+ response in the presence or absence of the mouse BAM8-22 receptor MrgprC11; format: cell-based; settings: tryptase 3 μM
# T1 sequence (Q8CIP3 1-322): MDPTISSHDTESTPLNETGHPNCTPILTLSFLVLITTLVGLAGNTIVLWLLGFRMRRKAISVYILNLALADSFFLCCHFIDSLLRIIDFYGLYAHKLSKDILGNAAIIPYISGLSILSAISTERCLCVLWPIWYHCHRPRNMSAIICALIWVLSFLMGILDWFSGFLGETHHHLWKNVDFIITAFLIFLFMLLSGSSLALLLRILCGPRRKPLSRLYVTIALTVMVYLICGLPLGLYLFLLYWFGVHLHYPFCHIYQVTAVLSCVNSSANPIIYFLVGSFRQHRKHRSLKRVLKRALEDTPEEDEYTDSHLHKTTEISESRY
# Protocol: FIG. 15. […] MrgprX1 was amplified from DRG, but not keratinocytes. MrgprX1 and GAPDH were amplified from RT-treated tissue but not from “no RT” controls. (B) Representative response to BAM8-22 (BAM, 2 μM) in human keratinocytes. (C) Representative response to tryptase (TRY, 3 μM) and BAM8-22 (BAM, 2 μM) in the presence or absence of the mouse BAM8-22 receptor, MrgprC11. (D) Left: representative traces showing a neuron that is sensitive to BAM8-22 (BAM) but not tryptase (TRY, blue), and a neuron that is sensitive to tryptase but not BAM8-22 (black). Right: quantification of the prevalence of tryptase-responsive (TRY, black), BAM8-22-responsive (blue, BAM), and tryptase- and BAM8-22-responsive neurons in mouse dorsal root ganglia. n≧500 cells. Data are represented as mean+/−SEM
molecule,measurement,setting,value
"NCCOB(c1ccccc1)c1ccccc1 [2-APB, 2-Aminoethoxydiphenyl borate]",SLIGRL-induced NFAT nuclear translocation in the presence of inhibitor,NFAT,attenuated
same,SLIGRL-induced NFAT nuclear translocation in the presence of inhibitor,NFAT; listed as 2APB,prevented
same,SLIGRL-evoked Ca^2+ influx,keratinocytes [1],significantly attenuated
same,tryptase-evoked Ca^2+ influx,keratinocytes [1],significantly attenuated
"C=CCN=C=S [AITC, allyl isothiocyanate]",Ca^2+ levels in TSLP-positive cells on subsequent exposure,DRG neurons,further increased
"COc1cc(CNC(=O)CCCC/C=C/C(C)C)ccc1O [CAP, capsaicin]",Ca^2+ levels in TSLP-positive cells on subsequent exposure,DRG neurons,further increased
"CCN(CC)CCCC(C)Nc1ccnc2cc(Cl)ccc12 (stereo not shown) [CQ, chloroquine]",overlap of the TSLP-sensitive population with the population sensitive to the compound,DRG neurons,6%
"[La+3] [La^3+, lanthanum]",SLIGRL-evoked Ca^2+ influx,keratinocytes [1],significantly attenuated
same,tryptase-evoked Ca^2+ influx,keratinocytes [1],significantly attenuated
"C=C(C)[C@]12C[C@@H](C)[C@@]34O[C@](Cc5ccccc5)(O[C@@H]1[C@@H]3C=C(COC(=O)Cc1ccc(O)c(OC)c1)C[C@]1(O)C(=O)C(C)=C[C@@H]41)O2 [RTX, resiniferatoxin]",TSLP-evoked scratching after neuronal ablation,"mice; RTX-treated mice compared to control mice, RTX two days prior to pruritogen",significantly decreased
"C/C=C(/C)C(=O)O[C@H]1C(C)=C2[C@H]([C@@H]1OC(=O)CCCCCCC)[C@@](C)(OC(C)=O)C[C@H](OC(=O)CCC)[C@@]1(O)[C@H]2OC(=O)[C@@]1(C)O [TG, thapsigargin]",TSLP secretion,keratinocytes [2],significant increase
"COc1ccc2c(c1)CC[C@@H]1[C@@H]2CC[C@]2(C)[C@@H](NCCCCCCN3C(=O)C=CC3=O)CC[C@@H]12 [U73122, 1-[6-[[(17β)-3-Methoxyestra-1,3,5(10)-trien-17-yl]amino]hexyl]-1H-pyrrole-2,5-dione]",prevalence of TSLP-sensitive neurons / TSLP-evoked Ca^2+ signals after pre-treatment,DRG neurons,significantly reduced
same,TSLP-evoked scratching after intradermal injection of PLC blocker,"mice; 30 min preinjection, versus vehicle, scratching quantified for 20 min",significantly attenuated
same,CQ-evoked scratching after intradermal injection of PLC blocker,"mice; preinjection, versus vehicle",normal
O=C1OC2(c3ccccc31)c1ccc(O)c(O)c1Oc1c2ccc(O)c1O [gallein],prevalence of TSLP-sensitive neurons / TSLP-evoked Ca^2+ signals after pre-treatment,DRG neurons,no effect
NCCc1c[nH]cn1 [histamine],overlap of the TSLP-sensitive population with the population sensitive to the compound,DRG neurons,6%
N.N.N.N.N.N.N.N.N.N.N.N.N.N.[Cl-].[Cl-].[Cl-].[Cl-].[Cl-].[Cl-].[O-2].[O-2].[Ru+3].[Ru+3].[Ru+4] [ruthenium red],neuronal sensitivity to TSLP after TRPV1 and TRPA1 inhibition,DRG neurons; 20 μM ruthenium red,significantly decreased
SLIGRL [widely used PAR2 ligand mimetic],TSLP secretion,keratinocytes [2],robust secretion
same,TSLP secretion in the absence of external Ca^2+,keratinocytes [2],not observed
same,expression of TSLP transcripts,TSLP transcripts,robustly increased
same,NFAT translocation to the nucleus,NFAT; SLIGRL 100 μM for 30 minutes,induced robust NFAT translocation
same,intracellular Ca^2+ response of keratinocytes,keratinocytes [1],evoked a rise in intracellular Ca^2+
same,reversal potential of SLIGRL-evoked currents,keratinocytes [3],no measurable reversal potentials below +80 mV
same,SLIGRL-evoked currents,"keratinocytes [3]; dependent on extracellular Ca^2+, inwardly-rectifying",triggered an ORAI1/2-like current
"TSLP: AD cytokine released from keratinocytes; injected as pruritogen, acts on TSLPR-positive sensory neurons",action potential firing,DRG neuron,triggered action potential firing
same,DRG neurons showing robust increases in intracellular Ca^2+,"DRG neurons; TSLP application (2 ng/mL), wild-type neurons",4.1±0.6%
same,source of TSLP-evoked Ca^2+ signal in sensory neurons,DRG neurons; absence (0 mM) and presence (2 mM) of extracellular Ca^2+,"triggers both release of Ca^2+ from intracellular stores, and subsequent Ca^2+ influx"
same,evoked Ca^2+ signaling abolished in IL7Rα-deficient neurons,DRG neurons; neurons isolated from IL7Rα-deficient mice,abolished
same,TSLP-evoked Ca^2+ signals in TRPA1-deficient neurons,DRG neurons; versus wild type littermates,significantly attenuated
same,TSLP-evoked itch behaviors in strains lacking T and B cells or mast cells,"mice; RAG1−/−, NOD SCID, Kit(W-sh) mice, no significant differences to wild type littermates",robust itch behaviors
same,time after injection at which robust itch behaviors were observed,mice; TSLP injection,≤ 5 min
same,wiping (pain behavior),mice; TSLP injection into the cheek of wild type mice,never observed
same,latency to scratch,mice; TSLP injection into the cheek of wild type mice (2.5 μg/20 μl),4.1 ± 0.3 min
same,itch-evoked scratching,"mice; TSLP injection into the cheek of wild type mice, versus vehicle",evoked robust scratching
same,TSLP-evoked scratching in TRPA1-deficient mice,mice; cheek injection 2.5 μg/10 μL,abolished
same,TSLP-evoked scratching in TRPV1-deficient mice,mice; cheek injection 2.5 μg/10 μL,normal
same,TSLP-evoked scratching in IL7Rα-deficient mice,"mice; cheek injection, versus wild type",significantly attenuated
"VGRPEWWMDYQKRYG [BAM8-22, MrgprX1-specific ligand, endogenous pruritogen]",overlap of the TSLP-sensitive population with the population sensitive to the compound,DRG neurons,0%
same,intracellular Ca^2+ response of keratinocytes,keratinocytes [1],insensitive
tryptase: endogenous PAR2 agonist,activation of MrgprC11,MrgprC11,does not activate
same,TSLP secretion,keratinocytes [2],robust secretion
same,TSLP secretion in the absence of external Ca^2+,keratinocytes [2],not observed
same,intracellular Ca^2+ response of keratinocytes,keratinocytes [1],evoked a rise in intracellular Ca^2+
same,tryptase-evoked itch in IL7Rα-deficient mice,mice; cheek 100 μg/20 μL,significantly attenuated
same,tryptase-evoked itch in PAR2-deficient mice,mice; cheek 100 μg/20 μL,significantly attenuated
same,tryptase-evoked itch behaviors,"mice; wild type mice, cheek 100 μg/20 μL, scratching quantified for 1 h",induced robust itch behaviors
